Measured values from paper PMC11791359, “A select inhibitor of MORC2 encapsulated by chimeric membranecoated DNA nanocage target alleviation TNBC progression” (Materials Today Bio, 2025).
“Also recorded” adds a separate entry of the source. Values belong to the molecule of their own block, whether it stands above or below them. Residues, ends and D or L forms follow the SMILES beside them. *: point of attachment. Cbz = O=C(OCc1ccccc1)*; CH2F = FC*

What was measured:
[1] = tested on: phosphotyrosine STAT3 (p-STAT3); test: Western blot of p-STAT3 in TNBC cells; assay type: cell-based, human
Protocol: Disruption of the IL6/STAT3 signaling pathway can induce cell cycle arrest and apoptosis, which may contribute to the tumor cell death observed in our study following Angoline treatment. Thus, WB analysis was performed to verify our hypothesis. […] These changes were also observed in tumor-bearing mice treated with Angoline (Fig. 3G). Thus, Angoline may also killing the TNBC cells by inhibiting the IL6/STAT3 signaling pathway.
TNBC cells were inoculated in 10-cm plates with 50–60% confluence and incubated for 24 hours. Then, after cleaning the cells with PBS three times, the total proteins of cells were harvested by adding the RIPA lysis buffer and 1% Phenylmethanesulfonyl Fluoride (PMSF) into the plates and scraping off the lysed cells. The total proteins were calculated by the BCA protein estimation assay and were isolated by 10% SDS‒PAGE. The protein was transferred onto the PVDF membrane and then blocked with 5% skim milk powder for 2 hours. The protein bands were probed with corresponding antibodies and incubated at 4 °C overnight. Then, the secondary antibodies were added and incubated 1 h at room temperature. Finally, the membranes were detected by the enhanced chemiluminescence detection system.

[2] = tested on: primary TNBC cell xenograft tumors; test: In vivo antitumor efficacy, primary TNBC xenograft; set-up: species or system BALB/c nude mice
Protocol: Xenograft tumor models were established by injecting primary TNBC cells under the skin of BALB/c nude mice. Then, one week after implantation, the mice were administered with normal saline, Angoline, PMD and PMD (Angoline) respectively via tail vein injection every 3 days. Also, the tumor volume in mice was measured every three days. […] Finally, all mice were sacrificed three weeks later and xenografts were removed. […] Additionally, significant differences in tumor weight were observed among the four groups (Fig. […]). […] Thus, we performed immunofluorescence staining to analyze the expression of Ki-67 in different groups. […] Furthermore, TUNLE staining was performed to evaluate the apoptosis of tumors treated with different drugs (Fig. 5E). […] PMD(Angoline) was prepared by encapsulating Angoline into tDNAn following the assembly steps mentioned above. Tumor-bearing mice were established using primary TNBC cells obtained from patients, following the methods described in the animal assessment section. Then, those mice were intravenously administrated with saline, Angoline, PMD and PMD(Angoline) every 3 days, respectively. Meanwhile, the tumor volume and mice weight were continuously monitored every 3 days. Ultimately, the mice were sacrificed after three weeks to obtain the tumors and vital organs (heart, liver, spleen, lung and kidney). Ki-67 expression was detected by immunofluorescence to determine the tumor growth in different groups. Also, HE staining was used to determine the damage of different drugs to important organs.

[3] = target: T1, MORC2 protein (Homo sapiens, UniProt Q9Y6X9); test: SPR molecular interaction, MORC2 protein (WT); assay type: binding
T1 construct: 6xHis; made in house; host or cells: Escherichia coli BL21
T1 sequence (Q9Y6X9 1-1032): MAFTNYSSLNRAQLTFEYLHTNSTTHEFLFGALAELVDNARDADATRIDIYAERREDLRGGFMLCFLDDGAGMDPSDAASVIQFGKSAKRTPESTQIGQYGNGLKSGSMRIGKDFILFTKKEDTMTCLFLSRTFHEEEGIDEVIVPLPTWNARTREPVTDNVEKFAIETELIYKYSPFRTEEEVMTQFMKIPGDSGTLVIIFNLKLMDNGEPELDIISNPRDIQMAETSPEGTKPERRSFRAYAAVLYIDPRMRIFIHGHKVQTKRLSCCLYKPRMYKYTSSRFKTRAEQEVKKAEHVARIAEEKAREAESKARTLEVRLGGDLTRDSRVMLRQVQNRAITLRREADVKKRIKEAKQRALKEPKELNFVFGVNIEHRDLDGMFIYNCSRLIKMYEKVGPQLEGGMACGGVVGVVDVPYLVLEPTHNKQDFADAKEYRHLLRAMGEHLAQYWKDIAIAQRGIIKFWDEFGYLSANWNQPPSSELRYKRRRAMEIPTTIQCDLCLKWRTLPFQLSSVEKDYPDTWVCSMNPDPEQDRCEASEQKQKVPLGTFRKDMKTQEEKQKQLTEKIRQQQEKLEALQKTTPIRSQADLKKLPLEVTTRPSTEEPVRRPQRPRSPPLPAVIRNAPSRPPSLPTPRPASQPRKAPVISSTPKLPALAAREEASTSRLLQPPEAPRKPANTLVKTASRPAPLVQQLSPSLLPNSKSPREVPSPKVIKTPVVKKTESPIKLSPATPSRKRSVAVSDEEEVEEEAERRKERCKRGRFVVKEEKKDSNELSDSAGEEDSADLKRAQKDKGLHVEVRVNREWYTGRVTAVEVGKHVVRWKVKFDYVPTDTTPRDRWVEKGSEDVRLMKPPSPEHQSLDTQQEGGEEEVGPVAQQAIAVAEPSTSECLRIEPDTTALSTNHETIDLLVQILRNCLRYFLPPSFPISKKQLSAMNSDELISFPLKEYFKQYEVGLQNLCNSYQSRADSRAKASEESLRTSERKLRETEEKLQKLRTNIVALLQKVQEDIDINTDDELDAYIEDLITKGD
Protocol: Topscience biological small molecule compound library was used to virtually screen out the potential small molecules by computer molecular docking. […] Then, a series of experiments were conducted to evaluate the binding ability between small molecule compounds and MORC2 protein. First, the optimal conditions for purification of MORC2 protein were investigated by univariate optimization method. Protein induction experiments were conducted under varying concentrations of IPTG (0 mM, 0.1 mM, 0.2 mM, 0.5 mM, 0.8 mM, 1 mM), temperature gradients (16 °C, 22 °C, 29 °C, 37 °C), and induction time (3 h, 6 h, 8 h, 10 h, 12 h). Finally, at 0.1 mM IPTG concentration, especially at 22 °C for 8 h, MORC2 protein expression reached the optimal level, which was verified by Coomassie blue staining (Figs. S7A–C). We cleared the other proteins by Binding/Wash Buffer 3 times and eluted the MORC2 protein with imidazole at 40 mM concentration to extract the high purity MORC2 protein (Fig. S7D). MORC2 protein with high purity was obtained according to the above conditions and verified by Coomassie blue staining (Fig. S7E). Then, surface plasmon resonance molecular interaction experiment was performed to detect the binding ability between small molecule compounds and MORC2 protein. […] Also, the binding strength between MORC2 and Angoline was dose-dependent on the concentration of Angoline (Fig. 2C). […]

[4] = tested on: TNBC cells; test: Cell cycle by flow cytometry; assay type: cell-based, human; conditions: TNBC cells after Angoline treatment
Protocol: (§1) The treated cells were digested with pancreatic enzymes and then were collected and washed with PBS. The cells were immobilized with pre-cooled 70% ethanol at 4 ℃ for 12-24 hours, and then centrifuged, washed, and suspended to ensure uniform cell dispersion. Propyridine iodide staining solution was added to each cell sample and incubated without light at 37 ℃ for 30 minutes. Subsequently, the labeled cells were subjected to cell cycle analysis using flow cytometer (Beckman Coulter, USA), and the results were processed by FlowJo software. For the apoptosis assay, 1 × 10^5 cells per sample were collected into 1.5 mL centrifuge tubes and were re-suspended with 195 μL Annexin V-FITC binding solution. Then, 5 μL Annexin V-FITC and 10 μL PI dyeing solution were added into every sample to re-suspend the cells and incubated at 20-25 °C for 20 minutes. Flow cytometry was used to detect red fluorescence at 638 nm and green fluorescence at 488 nm, and the apoptosis results were analysed by FlowJo software.

[5] = tested on: TNBC cells; test: Apoptosis by flow cytometry (Annexin V-FITC/PI); assay type: cell-based, human
Protocol: as §1

[6] = tested on: MDA-MB-468 cells; test: CCK8 assay, MDA-MB-468; assay type: cell-based, human; conditions: CCK8, MDA-MB-468, 24 h
Protocol: (§2) MDA-MB-231 and MDA-MB-468 cells were inoculated on 96-well plates with 5×10^3 cells per well, and then different small molecule drugs were added according to study requirements after the cell culture reached the appropriate density. Twenty-four hours after treatment, CCK-8 reagent was added to each well and incubated for 2 hours. Then, the absorbance of each well was measured at 450 nm using an enzyme-labeler to calculate the relative survival rate of cells.

[7] = tested on: MDA-MB-231 cells; test: CCK8 assay, MDA-MB-231; assay type: cell-based, human; conditions: CCK8, MDA-MB-231, 24 h
Protocol: as §2

[8] = tested on: 4T1 cells; test: CCK8 assay, 4T1; assay type: cell-based, mouse; conditions: CCK8, 4T1
Protocol: CCK8 assay was performed to confirm the optimal killing concentration of Angoline on TNBC cells (MDA-MB-231, MDA-MB-468, and 4T1) in vitro. […] Thus, we further verified our speculation by detecting the cell viability and apoptosis rate of TNBC cells treated with Angoline and/or apoptosis inhibitor (Z-VAD-FMK). As expected, the toxic effect of Angoline on TNBC cells was reduced by Z-VAD-FMK (Fig. 2F). […] Also, YO-PRO-1 staining confirmed that the proportion of apoptotic cells was reduced when Z-VAD-FMK was added in the Angoline treated group (Fig. 2H). […] While, the detailed pro-apoptotic mechanism needs to be further elucidated.

[9] = tested on: MCF-10A cells; assay type: cell-based, human
Protocol: Furthermore, the toxicity and side effects of PMD (Angoline) were evaluated through a comprehensive series of experiments. Firstly, normal breast epithelial cells (MCF-10A) were used to assess drug toxicity. […] Furthermore, we tested the immune-promoting cytokines, such as TNF-α, IL-1β and IL-6.

[10] = tested on: IL6/STAT3 signaling pathway; set-up: method as in PMID 24863036; conditions: cited from earlier work
[11] = Pharmacokinetic study, single intravenous injection; set-up: species or system Sprague-Dawley (SD) rats; conditions: Sprague-Dawley, rat, in vivo
Protocol: A pharmacokinetic (PK) study was performed to assess whether PMD could improve Angoline's systemic circulation and extend its half-life. Following a single intravenous injection of various formulations into Sprague-Dawley (SD) rats, blood samples were collected at predetermined time points and analyzed using HPLC. As illustrated in Fig. S19A and summarized in Table 1, the plasma concentration-time curves and PK parameters are presented. […] Furthermore, the data obtained from the area under the concentration-time curve (AUC) further confirmed the enhanced PK properties. Thus, the biomimetic nanodrug delivery system (PMD) confers Angoline with enhanced PK properties, attributed to its high stability and sustained drug release kinetics.

[12] = tested on: TNBC-bearing BALB/c nude mice; test: In vivo distribution and tumor uptake in TNBC-bearing mice; conditions: tail vein injection, fluorescent in vivo imaging
[13] = tested on: neutrophils; test: Phagocytosis by neutrophils (fluorescence microscopy); assay type: cell-based, human; conditions: incubated 4 hours
[14] = tested on: primary TNBC cells; test: Uptake by primary TNBC cells (fluorescence microscopy); assay type: cell-based, human; conditions: incubated 6 hours
[15] = tested on: TNBC-bearing BALB/c nude mice; conditions: mouse, in vivo

Molecule: COc1ccc2c(c1OC)C(OC)N(C)c1c-2ccc2cc3c(cc12)OCO3 (stereo not shown) [Angoline]
level of p-STAT3 [1]: significantly reduced | primary tumor growth (tumor volume) ([2]; tail vein injection every 3 days, three weeks): significant suppression of the primary tumor growth | apoptosis of tumors (TUNEL staining) ([2]; tumor tissue): significantly higher apoptosis rate compared to the groups treated with saline or PMD | proliferation capacity of tumor cell (Ki-67 immunofluorescence) ([2]; tumor tissue): significantly lower in the Angoline group than that in saline or PMD groups, but higher than PMD(Angoline) group | body weight ([2]; tumor-bearing mice, every 3 days): significantly increased | Kd [3]: 23.3 nM | cell cycle distribution [4]: higher proportion of TNBC cells remained in S and G2 phases | apoptosis rate ([5]; TNBC cells treated with Angoline): significantly increased; also recorded: dramatically increased | killing effect / inhibitory effect on cell viability [6]: strongest killing effect; also recorded: progressively increased with higher concentrations | killing effect / inhibitory effect on cell viability [7]: strongest killing effect; also recorded: progressively increased with higher concentrations | inhibitory effect on cell viability [8]: progressively increased with higher concentrations | toxicity toward MCF-10A cells [9]: neither Angoline nor PMD (Angoline) exhibited toxicity | suppression of IL6/STAT3 signaling pathway [10]: suppress the IL6/STAT3 signaling pathway | C0 [11]: 3670 ± 280 ng/mL | AUC(0-inf) ([11]; SD rats, single i.v.): 15400 ± 190 ng·h/mL | AUC(0-t) ([11]; SD rats, single i.v.): 13200 ± 320 ng·h/mL | Cmax ([11]; SD rats, single i.v.): 3410 ± 150 ng/mL | MRT ([11]; SD rats, single i.v.): 6.08 ± 0.18 h | clearance ([11]; SD rats, single i.v.): 2.29 mL/min | half-life ([11]; SD rats, single i.v.): 4.15 ± 0.06 h

uptake in tumor tissue sections [15]: rarely taken up by tumor cells
Molecule: Rhodamine
distribution in tumor-bearing mice [12]: rapidly diffused throughout the nude mice and was quickly cleared | uptake by neutrophils [13]: neutrophils were entirely covered with red fluorescence | uptake by primary TNBC cells [14]: rarely taken up by TNBC cells

Molecule: COC(=O)C[C@H](NC(=O)[C@H](C)NC(=O)[C@@H](NC(=O)OCc1ccccc1)C(C)C)C(=O)CF [Z-VAD-FMK, reference compound] (Cbz-Val-Ala-Asp(OMe)-CH2F)
effect on the proapoptotic effect of Angoline ([5]; TNBC cells, Angoline plus apoptosis inhibitor): significantly reduce the proapoptotic effect of Angoline
